Here are results for 26 compounds from BindingDB's records for doi:10.1021/jm00057a007 (Kyowa Hakko Kogyo, 1993).

Structures are written as SMILES. Counter-ions that a name gives are not always drawn.

A short description of the first assay: Inhibition of guinea pig acetylcholinesterase.
`CCN(CC)Cc1ccc(CNCCN2CCN=C2C(C#N)C#N)o1`: the IC50 worked out at 600 nM.
In turn, `N#CC(C#N)C1=NCCN1CCNCc1ccc(CN2CC=CCC2)o1` gave an IC50 of 95 nM.
On the same count and under the same terms, with `N#CC(C#N)C1=NCCN1CCNCc1ccc(CN2CCCCCC2)o1` the figure was 120 nM; with `COC1CCCN(Cc2ccc(CNCCN3CCN=C3C(C#N)C#N)o2)C1` (stereo unspecified), 3300 nM; with `CN=C(NCCNCc1ccc(CN2CCCCC2)o1)C(C#N)C#N`, 830 nM.
On the same count and under the same terms, with `O=c1[nH]c2ccccc2n1CCNCc1ccc(CN2CCCCC2)o1` [1-{2-[(5-Piperidin-1-ylmethyl-furan-2-ylmethyl)-amino]-ethyl}-1,3-dihydro-benzoimidazol-2-one] the figure was 1200 nM; with `N#CC(C#N)C1=NCCN1CCNCc1ccc(CN2CCOCC2)o1` [2-(1-{2-[(5-Morpholin-4-ylmethyl-furan-2-ylmethyl)-amino]-ethyl}-imidazolidin-2-ylidene)-malononitrile], 11000 nM; with `N#CC(C#N)c1nc2ccccc2n1CCNCc1ccc(CN2CCCCC2)o1` [2-(1-{2-[(5-Piperidin-1-ylmethyl-furan-2-ylmethyl)-amino]-ethyl}-1,3-dihydro-benzoimidazol-2-ylidene)-malononitrile], 73 nM.
Regarding `N#CC(C#N)C1=NCCN1CCNCc1ccc(CN2CCCCC2)o1` [2-(1-{2-[(5-Piperidin-1-ylmethyl-furan-2-ylmethyl)-amino]-ethyl}-imidazolidin-2-ylidene)-malononitrile], 30 nM corresponded to half-maximal inhibition (IC50).
For `N#CC(C#N)C1=NCCN1CCNCc1ccc(CN2CCCC2)o1` [2-(1-{2-[(5-Pyrrolidin-1-ylmethyl-furan-2-ylmethyl)-amino]-ethyl}-imidazolidin-2-ylidene)-malononitrile], the IC50 is 80 nM.
With `N#CC(C#N)C1=NCCN1CCNCc1ccc(CN2CCSCC2)o1` [2-(1-{2-[(5-Thiomorpholin-4-ylmethyl-furan-2-ylmethyl)-amino]-ethyl}-imidazolidin-2-ylidene)-malononitrile], half-maximal inhibition (IC50) was put at 1500 nM.
Turning to `CN=C(NCCNCc1ccc(CN2CCCC2)o1)C(C#N)C#N` [2-(Methylamino-{2-[(5-pyrrolidin-1-ylmethyl-furan-2-ylmethyl)-amino]-ethylamino}-methylene)-malononitrile], the IC50 came out at 280 nM.
In turn, `CN=C(NCCNCc1ccc(CN(C)C)o1)C(C#N)C#N` [2-({2-[(5-Dimethylaminomethyl-furan-2-ylmethyl)-amino]-ethylamino}-methylamino-methylene)-malononitrile] had a concentration for half-maximal inhibition (IC50) of 630 nM.
For the compound `CN=C(NCCNCc1ccc(COC)o1)C(C#N)C#N` [2-({2-[(5-Methoxymethyl-furan-2-ylmethyl)-amino]-ethylamino}-methylamino-methylene)-malononitrile], the concentration for half-maximal inhibition (IC50) was more than 20000 nM.
Compound `CC1CCCCN1Cc1ccc(CNCCN2CCN=C2C(C#N)C#N)o1` (stereo unspecified) [2-[1-(2-{[5-(2-Methyl-piperidin-1-ylmethyl)-furan-2-ylmethyl]-amino}-ethyl)-imidazolidin-2-ylidene]-malononitrile] showed a half-inhibitory concentration (IC50) of 540 nM.
In the case of `CC1CCN(Cc2ccc(CNCCN3CCN=C3C(C#N)C#N)o2)CC1` [2-[1-(2-{[5-(4-Methyl-piperidin-1-ylmethyl)-furan-2-ylmethyl]-amino}-ethyl)-imidazolidin-2-ylidene]-malononitrile], the IC50 is 290 nM.
On to `CCN(C)Cc1ccc(CNCCN2CCN=C2C(C#N)C#N)o1` [2-{1-[2-({5-[(Ethyl-methyl-amino)-methyl]-furan-2-ylmethyl}-amino)-ethyl]-imidazolidin-2-ylidene}-malononitrile], for which the half-inhibitory concentration (IC50) is 430 nM.
Take `CN=C(NCCNCc1ccc(CN(C(C)C)C(C)C)o1)C(C#N)C#N` [2-{[2-({5-[(Diisopropylamino)-methyl]-furan-2-ylmethyl}-amino)-ethylamino]-methylamino-methylene}-malononitrile]: 2100 nM corresponded to half-maximal inhibition (IC50).
The same measure, in the same setting: then `CNc1c(NCCNCc2ccc(CN3CCCCC3)o2)c(=O)c1=O` [3-Methylamino-4-{2-[(5-piperidin-1-ylmethyl-furan-2-ylmethyl)-amino]-ethylamino}-cyclobut-3-ene-1,2-dione], with 9300 nM.
Still for that read-out and setting: then `COc1cc(N)c(Cl)cc1C(=O)NCCNCc1ccc(CN(C)C)o1` [4-Amino-5-chloro-N-{2-[(5-dimethylaminomethyl-furan-2-ylmethyl)-amino]-ethyl}-2-methoxy-benzamide], with 3100 nM; and `CCN(CC)CCNC(=O)c1cc(Cl)c(N)cc1OC` [4-amino-5-chloro-N-[2-(diethylamino)ethyl]-2-methoxy-benzamide;hydrochloride], with more than 20000 nM; and `CN(C)Cc1ccc(CNCCN2CCN=C2C[N+](=O)[O-])o1` [(5-Dimethylaminomethyl-furan-2-ylmethyl)-[2-(2-nitromethylene-imidazolidin-1-yl)-ethyl]-amine], with more than 2000 nM.

A short description of another assay: Inhibition of guinea pig acetylcholinesterase.
On to `CN(C)Cc1ccc(CNCCN2CCN=C2C(C#N)C#N)o1` [2-(1-{2-[(5-Dimethylaminomethyl-furan-2-ylmethyl)-amino]-ethyl}-imidazolidin-2-ylidene)-malononitrile], for which the IC50 is 390 nM.
In turn, `N#CC(C#N)C1=NCCN1CCNCc1ccc(CN2CCCC(O)C2)o1` (stereo unspecified) [2-[1-(2-{[5-(3-Hydroxy-piperidin-1-ylmethyl)-furan-2-ylmethyl]-amino}-ethyl)-imidazolidin-2-ylidene]-malononitrile] gave an IC50 of 370 nM.
`CC1CCCN(Cc2ccc(CNCCN3CCN=C3C(C#N)C#N)o2)C1` (stereo unspecified) [2-[1-(2-{[5-(3-Methyl-piperidin-1-ylmethyl)-furan-2-ylmethyl]-amino}-ethyl)-imidazolidin-2-ylidene]-malononitrile] came in with an IC50 of 370 nM.
Still for that read-out and setting: then `N#CC(C#N)C1=NCCN1CCNCc1ccc(CN2CCC(O)CC2)o1` [2-[1-(2-{[5-(4-Hydroxy-piperidin-1-ylmethyl)-furan-2-ylmethyl]-amino}-ethyl)-imidazolidin-2-ylidene]-malononitrile], with 390 nM.

A word on the IC50: it is the concentration that inhibits the measured activity by half.
